Patent US8895752B2, “Alkylsulfonyl-substituted thiazolide compounds” (priority 2007, dated 2014)
Where two headings read alike, the source gives them in different places.

Key:
[1] = system: HBV; assay: HBV antiviral assay in confluent 2.2.15 cell cultures (HBV DNA, quantitative blot hybridization); assay type: cell-based, Hepatitis B Virus
Protocol: EC50, EC90 and CC50 values (±standard deviations [S.D.]) were calculated by linear regression analysis using data combined from all treated cultures (Korba and Gerin, 1992; Okuse et al., 2005). […] Selectivity index (S.I.) was calculated as CC50/EC90 for HBV assays and CC50/EC50 for HCV assays. EC90 values were used for calculation of the S.I. in HBV assays since at least a 3-fold depression of HBV DNA levels is typically required to achieve statistical significance in this assay system (Korba and Gerin, 1992).

[2] = Cytotoxicity by neutral red dye uptake in 2.2.15 cells; details: human
Protocol: (§1) HBV antiviral assays were conducted as previous described (Korba and Gerin, 1992).
(§2) EC50, EC90 and CC50 values (±standard deviations [S.D.]) were calculated by linear regression analysis using data combined from all treated cultures (Korba and Gerin, 1992; Okuse et al., 2005). […] Selectivity index (S.I.) was calculated as CC50/EC90 for HBV assays and CC50/EC50 for HCV assays. EC90 values were used for calculation of the S.I. in HBV assays since at least a […] depression of HBV DNA levels is typically required to achieve statistical significance in this assay system (Korba and Gerin, 1992). For combination treatments, EC50, EC90, CC50 and S.I. are presented for the first compound listed. The molar ratio of the compounds in each combination is also indicated.

[3] = system: HCV replicon, sub-genomic CON1, genotype 1b; assay: 3-day HCV replicon assay in AVA5 cells (intracellular HCV RNA, blot hybridization); assay type: cell-based, Hepatitis C Virus; details: for EC50 / EC90: 3 days, first compound listed for combinations
Protocol: (§3) Antiviral activity of test compounds was assessed in a 3-day assay using the stably-expressing HCV replicon cell line, AVA5 (sub-genomic CON1, genotype 1b) (Blight et al., 2000) maintained as sub-confluent cultures on 96-well plates as previously described (Okuse et al., 2005). Antiviral activity was determined by blot hybridization analysis of intracellular HCV RNA (normalized to the level of cellular B-actin RNA in each culture sample) and cytotoxicity was assessed by neutral red dye uptake after 3 days of treatment. Additional studies were performed using Huh7 cells containing another HCV replicon, H/FL-Neo, a genotype 1a full length construct (Blight et al., 2003). For studies involving human serum, standard culture medium (which contains 10% fetal bovine serum) and assay conditions were maintained.
as §2

[4] = Cytotoxicity by neutral red dye uptake in AVA5 cells; assay type: cell-based; details: human, Genotype 1b replicon
[5] = system: HCV replicon; assay: Primary HCV replicon cell assay; assay type: cell-based, Hepatitis C Virus; details: Hepatitis C virus
Protocol: as §3, §2

[6] = Primary HCV replicon cell assay, cytotoxicity; details: human, HCV replicon cells (primary assay), CC50, primary assay
Protocol: as §3, §2

[7] = system: HCV replicon genotype 1B; assay: Secondary HCV replicon cell assay, genotype 1B; assay type: cell-based, Hepatitis C Virus
Source text: (§4) Table 10 presents data from the secondary HCV replicon cell assays using genotypes 1B and 1A.

[8] = system: HCV replicon cells, genotype 1B; assay: Secondary HCV replicon cell assay, genotype 1B, cytotoxicity; assay type: cell-based
Source text: as §4

[9] = system: HCV replicon genotype 1A; assay: Secondary HCV replicon cell assay, genotype 1A; assay type: cell-based, Hepatitis C Virus
Source text: as §4

[10] = system: HCV replicon cells, genotype 1A; assay: Secondary HCV replicon cell assay, genotype 1A, cytotoxicity; assay type: cell-based
Source text: as §4

[11] = system: 2.2.15 cells; assay: Cytotoxicity by neutral red dye uptake in 2.2.15 cells
Protocol: as §1, §2

[12] = system: Wild-type HBV; assay: 5-day transient transfection assay in Huh7 cells, intracellular HBV RI by Southern blot; assay type: cell-based, Hepatitis B Virus
[13] = system: HBV Mutant L180M/M204V; assay: as above; assay type: cell-based, Hepatitis B Virus
Protocol: (§5) Activity against LMV-resistant (Allen et al., 1998) and ADV-resistant (Angus et al., 2003) HBV mutants was performed in a 5-day assay using a transient transfection method as previously described (Iyer et al., 2004). Antiviral activity was determined by quantitative Southern blot hybridization of intracellular HBV DNA replication intermediates (HBV RI).

[14] = system: HBV Mutant L180M; assay: as above; assay type: cell-based, Hepatitis B Virus
Protocol: as §5

[15] = system: HBV Mutant M204I; assay: as above; assay type: cell-based, Hepatitis B Virus
Protocol: as §5

[16] = system: HBV Mutant M204V; assay: as above; assay type: cell-based, Hepatitis B Virus
Protocol: as §5

[17] = system: HBV Mutant N236T; assay: as above; assay type: cell-based, Hepatitis B Virus
Protocol: as §5

[18] = system: HBV RNA; assay: Intracellular HBV RNA by quantitative northern blot hybridization in 2.2.15 cells; assay type: cell-based, Hepatitis B Virus
Protocol: (§6) Cultures of 2.2.15 cells were treated under standard procedures and semi-quantitative EIA-based analysis of HBV proteins was performed as previously described (Korba and Gerin, 1995), except that HBeAg was analyzed ETI-EBK Plus® (DiaSorin, Inc., Stillwater, Minn. USA). Samples were diluted (2 to 10-fold) to bring levels into the dynamic response ranges of the EIA's. HBsAg, and HBeAg were analyzed from culture medium samples and HBcAg was analyzed from intracellular lysates. Intracellular HBV RNA was assessed by quantitative northern blot hybridization (Korba and Gerin, 1995).

[19] = system: HBeAg; assay: Semi-quantitative EIA of HBV proteins in 2.2.15 culture medium; assay type: cell-based, Hepatitis B Virus
Protocol: as §6

[20] = system: HBsAg; assay: as above; assay type: cell-based, Hepatitis B Virus
Protocol: as §6

[21] = system: HBcAg; assay: Semi-quantitative EIA of HBV proteins in 2.2.15 intracellular lysates; assay type: cell-based, Hepatitis B Virus
Protocol: as §6

[22] = system: HCV replicon H/FL-Neo, genotype 1a full length; assay: HCV replicon assay in Huh7 cells containing H/FL-Neo; assay type: cell-based, Hepatitis C Virus
Protocol: as §3, §2

[23] = Cytotoxicity by neutral red dye uptake in Huh7 cells containing H/FL-Neo; assay type: cell-based; details: human; Genotype 1a replicon
[24] = system: HCV replication; assay: HCV replicon assay, 6 days total duration, NTZ monotherapy pre-treatment and combination therapy; assay type: cell-based; details: Hepatitis C virus, 144 h, first named drug for combinations
Protocol: as §3, with “Antiviral activity of test compounds was assessed in a 3-day assay using the stably-expressing” left out
as §2

[25] = oral 500 mg tablet; cited from earlier work
[26] = system: LMV-resistant and ADV-resistant HBV mutants; assay: Activity against drug-resistant HBV mutants, transient transfection in Huh7 cells (overall statement); assay type: cell-based, Hepatitis B Virus; details: all drug-resistant viruses tested
Protocol: as §5

[27] = system: AVA5 cells; assay: Cytotoxicity by neutral red dye uptake in AVA5 cells; assay type: cell-based; details: Genotype 1b replicon, 3 days
[28] = Hepatitis B virus, read-out: Intracellular HBV RI EC50
[29] = Hepatitis B virus, 2.2.15 cells, nine daily doses, read-out: Extracellular virion DNA EC50
[30] = Hepatitis C virus, Ava5, 72 h, Genotype 1b replicon
[31] = Hepatitis C virus, Huh-7, Genotype 1a replicon

CS(=O)(=O)c1cnc(NC(=O)c2ccccc2O)s1 [Compound 6, 2-hydroxy-N-(5-(methylsulfonyl)thiazol-2-yl)benzamide]
EC50 [1, 28]: > 10 µM
EC50 [1, 29]: > 10 µM
EC90 ([1]; Hepatitis B virus, 2.2.15 cells, nine daily doses, read-out: Extracellular virion DNA EC90): > 10 µM
EC90 ([1]; Hepatitis B virus, 2.2.15 cells, nine daily doses, read-out: Intracellular HBV RI EC90): > 10 µM
CC50 at 9 days [2]: > 100 µM
Selectivity Index ([3]; Genotype 1b replicon, CC50/EC50): 74
EC50 [3, 30]: 0.04 ± 0.005 µM
EC90 [3, 30]: 0.59 ± 0.07 µM
activity against HCV ([3]; among the other thiazolides): exhibited activity
CC50 at 3 days ([4]; AVA5 cells (HCV replicon, sub-genomic CON1)): 2.8 ± 0.3 µM
EC50 [5]: 1.5 µM
EC90 [5]: 5.2 µM
CC50 at 3 days [6]: 43 µM
EC50 [7]: 0.89 µM
EC90 ([7]; Hepatitis C virus): 8.8 µM
CC50 [8]: > 10 µM
EC50 [9]: 0.8 µM
EC90 [9]: 3.4 µM
CC50 [10]: > 10 µM

CC(=O)Oc1ccccc1C(=O)Nc1ncc([N+](=O)[O-])s1 [NTZ, nitazoxanide]
EC50 [1, 28]: 0.59 ± 0.07 µM
EC50 ([1]; Hepatitis B virus, 2.2.15 cells, Table 3 experiment, read-out: HBV R.I. EC50): 0.73 ± 0.06 µM
EC90 ([1]; Hepatitis B virus, 2.2.15 cells, Table 3 experiment, read-out: HBV R.I. EC90): 2.2 ± 0.3 µM
EC50 ([1]; Hepatitis B virus, 2.2.15 cells, Table 3 experiment, read-out: Virion production EC50): 0.19 ± 0.02 µM
EC90 ([1]; Hepatitis B virus, 2.2.15 cells, Table 3 experiment, read-out: Virion production EC90): 0.58 ± 0.04 µM
EC50 [1, 29]: 0.12 ± 0.02 µM
CC50 at 9 days [2]: > 100 µM
cytotoxicity in rapidly dividing cultures of 2.2.15 cells ([11]; rapidly dividing cultures): 20 ± 1.3 µM
EC50 ([12]; Hepatitis B virus, Huh-7): 0.21 ± 0.03 µM
EC90 ([12]; Hepatitis B virus, Huh-7, Wild-type, Huh7 transient transfection): 0.77 ± 0.09 µM
EC50 ([13]; Hepatitis B virus, Huh-7): 0.18 ± 0.02 µM
EC90 ([13]; Hepatitis B virus, Huh-7): 0.72 ± 0.09 µM
EC50 ([14]; Hepatitis B virus, Huh-7): 0.23 ± 0.03 µM
EC90 ([14]; Hepatitis B virus, Huh-7): 0.8 ± 0.09 µM
EC50 ([15]; Hepatitis B virus, Huh-7): 0.31 ± 0.05 µM
EC90 ([15]; Hepatitis B virus, Huh-7): 1 ± 0.2 µM
EC50 ([16]; Hepatitis B virus, Huh-7): 0.15 ± 0.02 µM
EC90 ([16]; Hepatitis B virus, Huh-7): 0.7 ± 0.08 µM
EC50 ([17]; Hepatitis B virus, Huh-7): 0.28 ± 0.03 µM
EC90 ([17]; Hepatitis B virus, Huh-7): 0.85 ± 0.1 µM
effect on intracellular HBV RNA (Northern blot hybridization) [18]: did not induce a reduction
EC50 ([19]; read-out: HBeAg EC50, 2.2.15 cells): 0.26 ± 0.02 µM
EC90 ([19]; read-out: HBeAg EC90, 2.2.15 cells): 1.3 ± 0.1 µM
EC50 ([20]; read-out: HBsAg EC50, 2.2.15 cells): 0.22 ± 0.03 µM
EC90 ([20]; read-out: HBsAg EC90, 2.2.15 cells): 1 ± 0.1 µM
EC50 ([21]; read-out: HBcAg EC50, 2.2.15 cells): 1.1 ± 0.1 µM
EC90 ([21]; read-out: HBcAg EC90, 2.2.15 cells): 3 ± 0.2 µM
EC50 [3, 30]: 0.21 ± 0.03 µM
EC90 [3, 30]: 0.93 ± 0.11 µM
CC50 at 3 days [4]: 38 ± 1.8 µM
antiviral activity against full length genotype 1a replicon compared with AVA5 cells (genotype 1b) [22]: equivalent
EC50 [22, 31]: 0.33 ± 0.05 µM
EC90 [22, 31]: 1.1 ± 0.1 µM
CC50 at 3 days [23]: 49 ± 1.5 µM
EC50 [24]: 0.2 ± 0.02 µM
EC90 [24]: 0.92 ± 0.1 µM
detection in plasma [25]: not detected

Cc1ccc(O)c(C(=O)Nc2ncc(Cl)s2)c1 [RM4850]
EC50 ([1]; 2.2.15 cells, nine daily doses, read-out: Extracellular virion DNA EC50): 0.33 ± 0.07 µM
EC90 ([1]; 2.2.15 cells, nine daily doses, read-out: Extracellular virion DNA EC90): 0.83 ± 0.1 µM
EC50 ([1]; 2.2.15 cells, nine daily doses, read-out: Intracellular HBV RI EC50): 0.9 ± 0.1 µM
CC50 ([11]; confluent 2.2.15 cultures, nine daily doses, neutral red uptake): > 100 µM
EC90 ([12]; Wild-type, Huh7 transient transfection): 2 ± 0.3 µM
EC50 ([12]; Wild-type, Huh7 transient transfection, read-out: EC50): 0.73 ± 0.08 µM
EC50 ([13]; L180M/M204V, read-out: EC50): 0.87 ± 0.11 µM
EC90 ([13]; L180M/M204V, read-out: EC90): 2.1 ± 0.3 µM
EC50 ([14]; L180M, read-out: EC50): 0.83 ± 0.09 µM
EC90 ([14]; L180M, read-out: EC90): 2.2 ± 0.2 µM
EC50 ([15]; M204I, read-out: EC50): 1 ± 0.2 µM
EC90 ([15]; M204I, read-out: EC90): 2.4 ± 0.3 µM
EC50 ([16]; M204V, read-out: EC50): 0.8 ± 0.1 µM
EC90 ([16]; M204V, read-out: EC90): 2.1 ± 0.3 µM
EC50 ([17]; N236T, read-out: EC50): 0.67 ± 0.08 µM
EC90 ([17]; N236T, read-out: EC90): 2.2 ± 0.2 µM
differences in potency against drug-resistant viruses relative to wild-type HBV [26]: No significant differences
EC50 ([3]; Genotype 1b replicon): > 20 µM
EC90 ([3]; Genotype 1b replicon): > 20 µM
CC50 [27]: 2.3 ± 0.2 µM
